According to PubChem BioAssay AID330 (DTP/NCI, 2004):
“And” between values parts separate entries of the source, which are not always exact repeats. Identical values can stand only once. Toxic doses and inconclusive results are not listed.

Tested on: P388 leukemia ip, CD2F1 mice, survival T/C
Assay: NCI In Vivo Anticancer Drug Screen. Data for tumor model P388 Leukemia (intraperitoneal) in CD2F1 (CDF1) mice
Conditions: endpoint: median survival time, higher = longer survival
In short: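 Mice carrying the transplanted tumor received test compound or vehicle. Survival was recorded in each group, and the value is the treated-group measurement divided by that of the vehicle-treated control group.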

[1] = dose: 100.0 mg/kg/injection, schedule: Q04DX003 (ip), vehicle: Klucel (hydroxypropylcellulose) (HPC)
[2] = dose: 200.0 mg/kg/injection, schedule: Q04DX003 (ip), vehicle: Klucel (hydroxypropylcellulose) (HPC)
[3] = dose: 400.0 mg/kg/injection, schedule: Q04DX003 (ip), vehicle: Klucel (hydroxypropylcellulose) (HPC)
[4] = dose: 50.0 mg/kg/injection, schedule: Q01DX009 (ip), vehicle: saline with Tween-80
[5] = dose: 100.0 mg/kg/injection, schedule: Q01DX009 (ip), vehicle: saline with Tween-80

C[C@]12CC[C@H](OC(=O)Cc3ccc(N(CCCl)CCCl)cc3)CC1=CC[C@@H]1[C@@H]2CC[C@]2(C)C(=O)CC[C@@H]12
T/C (dose: 16.0 mg/kg/injection, schedule: Q03HX024 (ip), vehicle: saline): 95 % of control | T/C (dose: 32.0 mg/kg/injection, schedule: Q03HX008 (ip), vehicle: saline): 90 % of control | T/C (dose: 32.0 mg/kg/injection, schedule: Q03HX016 (ip), vehicle: saline): 100 % of control | T/C (dose: 32.0 mg/kg/injection, schedule: Q03HX024 (ip), vehicle: saline): 90 % of control | T/C (dose: 64.0 mg/kg/injection, schedule: Q01DX009 (ip), vehicle: saline): 100 % of control | T/C (dose: 64.0 mg/kg/injection, schedule: Q01DX009 (sc), vehicle: saline): 104 % of control | T/C (dose: 64.0 mg/kg/injection, schedule: Q03HX008 (ip), vehicle: saline): 109 % of control | T/C (dose: 64.0 mg/kg/injection, schedule: Q03HX016 (ip), vehicle: saline): 109 % of control | T/C (dose: 64.0 mg/kg/injection, schedule: Q03HX024 (ip), vehicle: saline): 109 % of control | T/C (dose: 128.0 mg/kg/injection, schedule: Q01DX009 (ip), vehicle: saline): 95 % of control | T/C (dose: 128.0 mg/kg/injection, schedule: Q01DX009 (sc), vehicle: saline): 109 % of control | T/C (dose: 128.0 mg/kg/injection, schedule: Q03HX008 (ip), vehicle: saline): 168 % of control | T/C (dose: 128.0 mg/kg/injection, schedule: Q03HX016 (ip), vehicle: saline): 154 % of control | T/C (dose: 128.0 mg/kg/injection, schedule: Q03HX024 (ip), vehicle: saline): 100 % of control | T/C (dose: 128.0 mg/kg/injection, schedule: Q04DX003 (ip), vehicle: saline): 100 % of control | T/C (dose: 200.0 mg/kg/injection, schedule: Q04DX003 (ip), vehicle: saline with Tween-80): 150 % of control | T/C (dose: 256.0 mg/kg/injection, schedule: Q01DX001 (ip), vehicle: saline): 100 % of control | T/C (dose: 256.0 mg/kg/injection, schedule: Q01DX001 (sc), vehicle: saline): 100 % of control | T/C (dose: 256.0 mg/kg/injection, schedule: Q01DX009 (oral), vehicle: saline): 109 % of control | T/C (dose: 256.0 mg/kg/injection, schedule: Q01DX009 (sc), vehicle: saline): 118 % of control | T/C (dose: 256.0 mg/kg/injection, schedule: Q03HX008 (ip), vehicle: saline): 122 % of control | T/C (dose: 256.0 mg/kg/injection, schedule: Q04DX003 (ip), vehicle: saline): 100 % of control | T/C (dose: 256.0 mg/kg/injection, schedule: Q08DX002 (ip), vehicle: saline): 100 % of control | T/C (dose: 264.0 mg/kg/injection, schedule: Q04DX003 (ip), vehicle: saline with Tween-80): 179 % of control | T/C (dose: 400.0 mg/kg/injection, schedule: Q04DX003 (ip), vehicle: saline with Tween-80): 183 % of control and 200 % of control | T/C (dose: 512.0 mg/kg/injection, schedule: Q01DX001 (ip), vehicle: saline): 104 % of control | T/C (dose: 512.0 mg/kg/injection, schedule: Q01DX001 (sc), vehicle: saline): 104 % of control | T/C (dose: 512.0 mg/kg/injection, schedule: Q01DX009 (ip), vehicle: saline): 150 % of control | T/C (dose: 512.0 mg/kg/injection, schedule: Q01DX009 (oral), vehicle: saline): 113 % of control | T/C (dose: 512.0 mg/kg/injection, schedule: Q04DX003 (ip), vehicle: saline): 122 % of control | T/C (dose: 512.0 mg/kg/injection, schedule: Q08DX002 (ip), vehicle: saline): 118 % of control | T/C (dose: 600.0 mg/kg/injection, schedule: Q04DX003 (ip), vehicle: saline with Tween-80): 112 % of control | T/C (dose: 1024.0 mg/kg/injection, schedule: Q01DX001 (ip), vehicle: saline): 118 % of control | T/C (dose: 1024.0 mg/kg/injection, schedule: Q01DX001 (sc), vehicle: saline): 118 % of control | T/C (dose: 1024.0 mg/kg/injection, schedule: Q01DX009 (oral), vehicle: saline): 109 % of control | T/C (dose: 1024.0 mg/kg/injection, schedule: Q04DX003 (ip), vehicle: saline): 163 % of control | T/C (dose: 1024.0 mg/kg/injection, schedule: Q08DX002 (ip), vehicle: saline): 159 % of control | T/C (dose: 2048.0 mg/kg/injection, schedule: Q01DX001 (ip), vehicle: saline): 109 % of control | T/C (dose: 2048.0 mg/kg/injection, schedule: Q01DX009 (oral), vehicle: saline): 118 % of control | T/C (dose: 2048.0 mg/kg/injection, schedule: Q08DX002 (ip), vehicle: saline): 90 % of control

CCOc1ccccc1N=Nc1c(C)nn(C(=S)S)c1OCC
T/C (dose: 60.0 mg/kg/injection, schedule: Q01DX005 (ip), vehicle: Klucel + Tween-80): 97 % of control | T/C (dose: 120.0 mg/kg/injection, schedule: Q01DX005 (ip), vehicle: Klucel + Tween-80): 95 % of control | T/C (dose: 240.0 mg/kg/injection, schedule: Q01DX005 (ip), vehicle: Klucel + Tween-80): 100 % of control

COC(=O)C1CC2CCCCC2C1C(=O)OC (centres undefined)
T/C [1]: 89 % of control | T/C [2]: 87 % of control | T/C [3]: 89 % of control

CCOC(=O)COC1=NN(c2cccc(C(F)(F)F)c2)CC1
T/C [1]: 110 % of control | T/C [2]: 110 % of control | T/C [3]: 109 % of control

CN(C)c1c([N+](=O)[O-])cc2[nH]cnc2c1[N+](=O)[O-]
T/C (dose: 3.12 mg/kg/injection, schedule: Q04DX003 (ip), vehicle: saline with Tween-80): 103 % of control | T/C (dose: 6.25 mg/kg/injection, schedule: Q04DX003 (ip), vehicle: saline with Tween-80): 103 % of control | T/C (dose: 12.5 mg/kg/injection, schedule: Q04DX003 (ip), vehicle: saline with Tween-80): 105 % of control

C1CC[C@H]2OCN[C@@H]2C1
T/C (dose: 200.0 mg/kg/injection, schedule: Q04DX002 (ip), vehicle: Klucel (hydroxypropylcellulose) (HPC)): 118 % of control | T/C (dose: 400.0 mg/kg/injection, schedule: Q04DX002 (ip), vehicle: Klucel (hydroxypropylcellulose) (HPC)): 115 % of control

CC(=O)Nc1nncs1
T/C (dose: 100.0 mg/kg/injection, schedule: Q04DX003 (ip), vehicle: saline sonified): 109 % of control | T/C (dose: 200.0 mg/kg/injection, schedule: Q04DX003 (ip), vehicle: saline sonified): 90 % of control | T/C (dose: 400.0 mg/kg/injection, schedule: Q04DX003 (ip), vehicle: saline sonified): 118 % of control

CCCCOCC(=O)O
T/C (dose: 25.0 mg/kg/injection, schedule: Q01DX009 (ip), vehicle: saline): 94 % of control | T/C (dose: 50.0 mg/kg/injection, schedule: Q01DX009 (ip), vehicle: saline): 97 % of control | T/C (dose: 100.0 mg/kg/injection, schedule: Q01DX009 (ip), vehicle: saline): 93 % of control

CC1(C)C(c2ccccc2)C1(Cl)Cl (centres undefined)
T/C (dose: 100.0 mg/kg/injection, schedule: Q04DX002 (ip), vehicle: saline with Tween-80): 99 % of control | T/C (dose: 200.0 mg/kg/injection, schedule: Q04DX002 (ip), vehicle: saline with Tween-80): 93 % of control

O=C1CSC(=Nc2ccc(F)cc2F)N1Cc1cccs1
T/C (dose: 60.0 mg/kg/injection, schedule: Q01DX005 (ip), vehicle: Klucel (hydroxypropylcellulose) (HPC)): 102 % of control | T/C (dose: 120.0 mg/kg/injection, schedule: Q01DX005 (ip), vehicle: Klucel (hydroxypropylcellulose) (HPC)): 113 % of control | T/C (dose: 240.0 mg/kg/injection, schedule: Q01DX005 (ip), vehicle: Klucel (hydroxypropylcellulose) (HPC)): 103 % of control

CN(CCO)c1ccc([N+](=O)[O-])c2nonc12
T/C (dose: 25.0 mg/kg/injection, schedule: Q04DX002 (ip), vehicle: saline): 99 % of control and 103 % of control | T/C (dose: 50.0 mg/kg/injection, schedule: Q04DX002 (ip), vehicle: saline): 99 % of control (2×) and 115 % of control | T/C (dose: 100.0 mg/kg/injection, schedule: Q04DX002 (ip), vehicle: saline): 100 % of control and 101 % of control

CC(=O)c1ccc(N=NN(C)c2ccc(C(C)=O)cc2)cc1
T/C [4]: 108 % of control | T/C [5]: 107 % of control | T/C (dose: 200.0 mg/kg/injection, schedule: Q01DX009 (ip), vehicle: saline with Tween-80): 101 % of control

C=Cc1cnc([N+](=O)[O-])n1C
T/C (dose: 50.0 mg/kg/injection, schedule: Q01DX009 (ip), vehicle: Klucel (hydroxypropylcellulose) (HPC)): 110 % of control and 123 % of control | T/C (dose: 100.0 mg/kg/injection, schedule: Q01DX009 (ip), vehicle: Klucel (hydroxypropylcellulose) (HPC)): 111 % of control | T/C (dose: 200.0 mg/kg/injection, schedule: Q01DX009 (ip), vehicle: Klucel (hydroxypropylcellulose) (HPC)): 153 % of control

Cc1cc(=O)n2c(n1)Nc1ccc(Cl)cc1C2
T/C [4]: 100 % of control | T/C [5]: 98 % of control

O=C(NCCc1ccccc1Br)c1ccccc1
T/C (dose: 50.0 mg/kg/injection, schedule: Q01DX005 (ip), vehicle: Klucel (hydroxypropylcellulose) (HPC)): 100 % of control | T/C (dose: 100.0 mg/kg/injection, schedule: Q01DX005 (ip), vehicle: Klucel (hydroxypropylcellulose) (HPC)): 97 % of control | T/C (dose: 200.0 mg/kg/injection, schedule: Q01DX005 (ip), vehicle: Klucel (hydroxypropylcellulose) (HPC)): 93 % of control
